One experiment deals with T1, OX1 (Homo sapiens, UniProt O43613).
T1 sequence (O43613 1-425): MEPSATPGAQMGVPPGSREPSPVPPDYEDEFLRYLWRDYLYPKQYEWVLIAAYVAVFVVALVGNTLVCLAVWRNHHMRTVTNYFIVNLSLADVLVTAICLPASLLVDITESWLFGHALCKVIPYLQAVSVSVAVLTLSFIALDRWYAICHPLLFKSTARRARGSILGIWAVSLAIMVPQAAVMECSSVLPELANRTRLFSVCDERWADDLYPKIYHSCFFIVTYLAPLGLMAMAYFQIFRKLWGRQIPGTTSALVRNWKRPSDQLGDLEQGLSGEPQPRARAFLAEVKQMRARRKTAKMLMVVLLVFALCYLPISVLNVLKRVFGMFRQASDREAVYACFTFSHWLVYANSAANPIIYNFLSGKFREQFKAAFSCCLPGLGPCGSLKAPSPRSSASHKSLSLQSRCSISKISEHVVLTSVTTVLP
Nature of the experiment: Measurement of orexin receptor-binding ability ([125I]-OX-A, cell membranes, OX1). Further details: expressed in transfected cells; host or cells: CHO cells (membrane preparation).

The target of a further experiment is T2, OX2 (Homo sapiens, UniProt O43614).
T2 sequence (O43614 1-444): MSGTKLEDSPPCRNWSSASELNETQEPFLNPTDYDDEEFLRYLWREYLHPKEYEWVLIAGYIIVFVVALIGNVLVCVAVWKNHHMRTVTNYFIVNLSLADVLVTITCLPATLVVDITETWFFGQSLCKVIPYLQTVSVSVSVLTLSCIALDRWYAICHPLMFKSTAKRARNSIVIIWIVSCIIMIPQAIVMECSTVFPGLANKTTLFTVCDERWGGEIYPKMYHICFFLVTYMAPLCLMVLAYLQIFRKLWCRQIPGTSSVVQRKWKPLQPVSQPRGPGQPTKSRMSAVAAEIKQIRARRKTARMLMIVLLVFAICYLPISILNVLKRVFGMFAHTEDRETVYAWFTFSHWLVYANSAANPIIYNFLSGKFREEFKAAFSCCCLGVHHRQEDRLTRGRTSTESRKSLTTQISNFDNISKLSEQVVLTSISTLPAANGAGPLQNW
Nature of the experiment: Measurement of orexin receptor-binding ability ([125I]-OX-A, cell membranes, OX2). On the set-up: expressed in transfected cells; host or cells: CHO cells (membrane preparation). Particulars: membranes of recombinant CHO cells expressing OX2, 0.2 nM [125I]-OX-A.

Where [1] appears, read: membranes of recombinant CHO cells expressing OX1, 0.2 nM [125I]-OX-A, read-out: OX1 (IC50).

In general, IC50 refers to the concentration that gives 50% inhibition.

Where two headings read alike, the source gives them in different places.

Take `CCc1nc(C)ncc1OC[C@@]1(c2cccc(F)c2)C[C@H]1C(=O)Nc1ccc(C#N)cn1` [Example 242, (1R,2S)-N-(5-cyanopyridin-2-yl)-2-{[(4-ethyl-2-methylpyrimidin-5-yl)oxy]methyl}-2-(3-fluorophenyl)cyclopropanecarboxamide]: the IC50 was found to be 6 nM on OX1 (setting [1]) and 4 nM at OX2 (read-out: OX2 (IC50)).
As for `CCc1nc(C)ncc1OC[C@@]1(c2cccc(F)c2)C[C@H]1C(=O)Nc1ccc(Cl)cn1` [Example 243, (1R,2S)-N-(5-chloropyridin-2-yl)-2-{[(4-ethyl-2-methylpyrimidin-5-yl)oxy]methyl}-2-(3-fluorophenyl)cyclopropanecarboxamide], the results for the IC50 on OX1 and at OX2 (OX2 (IC50) nM) were 2 nM and 3.3 nM, respectively.
As for `CCc1nc(C)ncc1OC[C@@]1(c2cccc(F)c2)C[C@H]1C(=O)Nc1cc(C)c(F)cn1` [Example 244, (1R,2S)-2-{[(4-ethyl-2-methylpyrimidin-5-yl)oxy]methyl}-N-(5-fluoro-4-methylpyridin-2-yl)-2-(3-fluorophenyl)cyclopropanecarboxamide], the IC50 was 3 nM on OX1 (setting [1]) and 5.3 nM at OX2 (read-out: OX2 (IC50)).
For `CCc1nc(C)ncc1OC[C@@]1(c2ccc(F)cc2)C[C@H]1C(=O)Nc1ccccn1` [Example 245, (1R,2S)-2-{[(4-ethyl-2-methylpyrimidin-5-yl)oxy]methyl}-2-(4-fluorophenyl)-N-(pyridin-2-yl)cyclopropanecarboxamide], the figures for the IC50 at OX1 and on OX2 (OX2 (IC50) nM) were 64 nM and 10 nM, respectively.
With `CCc1nc(C)ncc1OC[C@@]1(c2ccc(F)cc2)C[C@H]1C(=O)Nc1ccc(F)cn1` [Example 246, (1R,2S)-2-{[(4-ethyl-2-methylpyrimidin-5-yl)oxy]methyl}-2-(4-fluorophenyl)-N-(5-fluoropyridin-2-yl)cyclopropanecarboxamide], the IC50 at OX1 is 16 nM; on OX2 (OX2 (IC50) nM), 4 nM.
In the case of `CCc1nc(C)ncc1OC[C@@]1(c2ccc(F)cc2)C[C@H]1C(=O)Nc1cc(Cl)ccn1` [Example 247, (1R,2S)-N-(4-chloropyridin-2-yl)-2-{[(4-ethyl-2-methylpyrimidin-5-yl)oxy]methyl}-2-(4-fluorophenyl)cyclopropanecarboxamide], the IC50 on OX1 (setting [1]) was found to be 22 nM; on OX2 (read-out: OX2 (IC50)), 3 nM.
Regarding `CCc1nc(C)ncc1OC[C@@]1(c2ccc(F)cc2)C[C@H]1C(=O)Nc1cc(C)c(F)cn1` [Example 248, (1R,2S)-2-{[(4-ethyl-2-methylpyrimidin-5-yl)oxy]methyl}-N-(5-fluoro-4-methylpyridin-2-yl)-2-(4-fluorophenyl)cyclopropanecarboxamide], the IC50 came out at 10 nM at OX1 (setting [1]) and 3 nM at OX2 (read-out: OX2 (IC50)).
With `COc1cc(F)cc([C@]2(COc3cnc(C)nc3C)C[C@H]2C(=O)Nc2ccc(F)cn2)c1` [Example 254], the IC50 on OX1 came to 109 nM; at OX2 (OX2 (IC50) nM) it was 11 nM.
Consider `Cc1ncc(OCC2(c3cccnc3)CC2C(=O)Nc2ccc(Cl)cn2)c(C)n1` (stereo not shown) [Example 260, N-(5-chloropyridin-2-yl)-2-{[(2,4-dimethylpyrimidin-5-yl)oxy]methyl}-2-pyridin-3-ylcyclopropanecarboxamide], for which the IC50 at OX1 (setting [1]) is more than 2000 nM; on OX2 (read-out: OX2 (IC50)), 70 nM.
Turning to `Cc1ncc(OCC2(c3ccccc3F)CC2C(=O)Nc2ccc(Cl)cn2)c(C)n1` (stereo not shown) [Example 262], the IC50 was determined as 85 nM at OX1 and 51 nM on OX2 (OX2 (IC50) nM).
For `Cc1ncc(OCC2(c3cccc(C(F)(F)F)c3)CC2C(=O)Nc2ccc(C#N)cn2)c(C)n1` (stereo not shown) [Example 264], the IC50 on OX1 (setting [1]) stood at 792 nM; on OX2 (read-out: OX2 (IC50)) it was 23 nM.
Turning to `Cc1ncc(OCC2(c3cccc(C(F)(F)F)c3)CC2C(=O)Nc2ccc(Cl)cn2)c(C)n1` (stereo not shown) [Example 265], the values for the IC50 at OX1 and at OX2 (OX2 (IC50) nM) were 43 nM and 10 nM, respectively.
On the same counts, the results for `Cc1ncc(OC[C@@]2(c3cccc(C(F)(F)F)c3)C[C@H]2C(=O)Nc2ccc(F)cn2)c(C)n1` [Example 266, (1R,2S)-2-{[(2,4-dimethylpyrimidin-5-yl)oxy]methyl}-N-(5-fluoropyridin-2-yl)-2-(3-trifluoromethylphenyl)cyclopropanecarboxamide] are 30 nM and 2.7 nM.
For `Cc1ncc(OC[C@@]2(c3cccs3)C[C@H]2C(=O)Nc2ccc(Cl)cn2)c(C)n1` [Example 267], the values for the IC50 on OX1 (setting [1]) and at OX2 (read-out: OX2 (IC50)) were 118 nM and 64 nM, respectively.
Take `Cc1ncc(OC[C@@]2(c3cccs3)C[C@H]2C(=O)Nc2ccc(F)cn2)c(C)n1` [Example 268]: the IC50 is 164 nM on OX1 and 36 nM on OX2 (OX2 (IC50) nM).
`Cc1ncc(OC[C@@]2(c3ccsc3)C[C@H]2C(=O)Nc2ccc(Cl)cn2)c(C)n1` [Example 269]: the figures for the IC50 on OX1 (setting [1]) and on OX2 (read-out: OX2 (IC50)) were 264 nM and 23 nM, respectively.
`Cc1ncc(OC[C@@]2(c3ccsc3)C[C@H]2C(=O)Nc2ccc(F)cn2)c(C)n1` [Example 270]: the IC50 on OX1 is 264 nM; on OX2 (OX2 (IC50) nM), 58 nM.
The like results for `Cc1ncc(OCC2(c3cccc(Br)c3)CC2C(=O)Nc2ccc(F)cn2)c(C)n1` (stereo not shown) [Example 271] were, in that order, 18 nM and 5 nM.
On the same counts, the results for `Cc1ncc(OC[C@@]2(c3ccc(Br)cc3)C[C@H]2C(=O)Nc2ccc(Cl)cn2)c(C)n1` [Example 273, (1R,2S)-2-(4-bromophenyl)-N-(5-chloropyridin-2-yl)-2-{[(2,4-dimethylpyrimidin-5-yl)oxy]methyl}cyclopropanecarboxamide] are 69 nM and 10 nM.
The like results for `Cc1ncc(OC[C@@]2(c3ccc(Br)cc3)C[C@H]2C(=O)Nc2ccc(F)cn2)c(C)n1` [Example 274] were, in that order, 59 nM and 19 nM.
As for `Cc1ncc(OCC2(c3ccccc3F)CC2C(=O)Nc2cccnc2)c(C)n1` (stereo not shown) [Example 276], the IC50 was 3210 nM on OX1 and 76 nM on OX2 (OX2 (IC50) nM).
In the case of `Cc1ncc(OCC2(c3cccc(C(F)(F)F)c3)CC2C(=O)Nc2cccnc2)c(C)n1` (stereo not shown) [Example 277], the IC50 on OX1 (setting [1]) was 2210 nM; on OX2 (read-out: OX2 (IC50)), 104 nM.
`Cc1ccc(NC(=O)[C@@H]2C[C@@]2(COc2cnc(C)nc2C)c2cccc(F)c2)nc1` [Example 278]: the IC50 on OX1 was found to be 76 nM; on OX2 (OX2 (IC50) nM) it was 10 nM.
The like results for `Cc1ncc(OC[C@@]2(c3cccc(F)c3)C[C@H]2C(=O)Nc2ccc(Br)cn2)c(C)n1` [Example 279] were, in that order, 24 nM and 3.2 nM.
As for `Cc1ncc(OC[C@@]2(c3cccc(F)c3)C[C@H]2C(=O)Nc2ccc(I)cn2)c(C)n1` [Example 280], the IC50 is 24 nM on OX1 and 21 nM at OX2 (OX2 (IC50) nM).
The like results for `Cc1ncc(OC[C@@]2(c3cccc(F)c3)C[C@H]2C(=O)Nc2ccc(CF)cn2)c(C)n1` [Example 282] were, in that order, 21 nM and 2.4 nM.
As for `Cc1ncc(OC[C@@]2(c3cccc(I)c3)C[C@H]2C(=O)Nc2ccc(F)cn2)c(C)n1` [Example 283, (1R,2S)-2-{[(2,4-dimethylpyrimidin-5-yl)oxy]methyl}-N-(5-fluoropyridin-2-yl)-2-(3-iodophenyl)cyclopropanecarboxamide], the IC50 on OX1 was determined as 172 nM; at OX2 (OX2 (IC50) nM) it was 9 nM.
Take `Cc1nc(C)[n+]([O-])cc1OC[C@@]1(c2cccc(F)c2)C[C@H]1C(=O)Nc1ccc(F)cn1` [Example 284]: the IC50 turned out to be 112 nM on OX1 and 6 nM on OX2 (OX2 (IC50) nM).
On the same counts, the results for `Cc1ncc(OC[C@@]2(c3cccc(F)c3)C[C@H]2C(=O)Nc2ccc(F)cn2)c(C)[n+]1[O-]` [Example 285] are 77 nM and 16 nM.
